Data from PubChem BioAssay AID192 (DTP/NCI, 2004).
Several values for one entry are separate records, joined by “and”; a condition that tells them apart may be missing. Equal values may be shown once. Toxic doses and inconclusive results are not listed.

Test system: BDF1 mice, B16 melanoma ip, median survival T/C
Test: NCI In Vivo Anticancer Drug Screen. Data for tumor model B16 Melanoma (intraperitoneal) in B6D2F1 (BDF1) mice
Conditions: endpoint: median survival time, higher = longer survival
Experimental: The antitumor activity of compounds was measured in mice bearing transplantable tumors. Survival or tumor size were measured and the results are expressed as the measurement made in the treated group (T) divided by the measurement made in the vehicle treated control group (C). The tumor model used in this assay is B16 Melanoma (intraperitoneal) in B6D2F1 (BDF1) mice

SMILES: CCC1(O)CC2CN(CCc3c([nH]c4ccccc34)C(C(=O)OC)(c3cc4c(cc3OC)N(C)C3C(O)(C(N)=O)C(O)C5(CC)C=CCN6CCC43C65)C2)C1 (stereo unspecified) (tested in a mixture with another compound)
- T/C (dose: 0.12 mg/kg/injection, schedule: Q04DX003 (ip), vehicle: water): 115 % of control
- T/C (dose: 0.13 mg/kg/injection, schedule: Q01DX009 (ip), vehicle: water): 162 % of control
- T/C (dose: 0.18 mg/kg/injection, schedule: Q04DX003 (ip), vehicle: saline): 159 % of control
- T/C (dose: 0.22 mg/kg/injection, schedule: Q01DX009 (ip), vehicle: water): 183 % of control
- T/C (dose: 0.25 mg/kg/injection, schedule: Q04DX003 (ip), vehicle: saline): 108 % of control
- T/C (dose: 0.25 mg/kg/injection, schedule: Q04DX003 (ip), vehicle: water): 115 % of control
- T/C (dose: 0.3 mg/kg/injection, schedule: Q04DX003 (ip), vehicle: saline): 177 % of control
- T/C (dose: 0.36 mg/kg/injection, schedule: Q01DX009 (ip), vehicle: water): 151 % of control and 184 % of control
- T/C (dose: 0.39 mg/kg/injection, schedule: Q04DX003 (ip), vehicle: saline): 176 % of control
- T/C (dose: 0.5 mg/kg/injection, schedule: Q04DX003 (ip), vehicle: saline): 109 % of control and 236 % of control
- T/C (dose: 0.5 mg/kg/injection, schedule: Q04DX003 (ip), vehicle: water): 118 % of control
- T/C (dose: 0.52 mg/kg/injection, schedule: Q04DX003 (ip), vehicle: water): 183 % of control
- T/C (dose: 0.6 mg/kg/injection, schedule: Q01DX009 (ip), vehicle: water): 241 % of control
- T/C (dose: 0.6 mg/kg/injection, schedule: Q04DX003 (ip), vehicle: saline): 119 % of control
- T/C (dose: 0.65 mg/kg/injection, schedule: Q04DX003 (ip), vehicle: saline): 172 % of control
- T/C (dose: 0.86 mg/kg/injection, schedule: Q04DX003 (ip), vehicle: water): 166 % of control and 202 % of control
- T/C (dose: 1.0 mg/kg/injection, schedule: Q04DX003 (ip), vehicle: saline): 168 % of control
- T/C (dose: 1.04 mg/kg/injection, schedule: Q01DX001 (ip), vehicle: water): 122 % of control
- T/C (dose: 1.08 mg/kg/injection, schedule: Q04DX003 (ip), vehicle: saline): 206 % of control
- T/C (dose: 1.44 mg/kg/injection, schedule: Q04DX003 (ip), vehicle: water): 151 % of control and 275 % of control
- T/C (dose: 1.73 mg/kg/injection, schedule: Q01DX001 (ip), vehicle: water): 165 % of control
- T/C (dose: 1.8 mg/kg/injection, schedule: Q04DX003 (ip), vehicle: saline): 241 % of control
- T/C (dose: 2.0 mg/kg/injection, schedule: Q04DX003 (ip), vehicle: saline): 180 % of control
- T/C (dose: 2.9 mg/kg/injection, schedule: Q01DX001 (ip), vehicle: water): 166 % of control
- T/C (dose: 4.0 mg/kg/injection, schedule: Q04DX003 (ip), vehicle: saline): 181 % of control
- T/C (dose: 4.8 mg/kg/injection, schedule: Q01DX001 (ip), vehicle: water): 152 % of control and 194 % of control
- T/C (dose: 8.0 mg/kg/injection, schedule: Q01DX001 (ip), vehicle: water): 211 % of control
- T/C (dose: 37.5 micrograms/kg/injection, schedule: Q01DX009 (ip), vehicle: water): 98 % of control
- T/C (dose: 60.0 micrograms/kg/injection, schedule: Q01DX009 (ip), vehicle: saline): 151 % of control
- T/C (dose: 75.0 micrograms/kg/injection, schedule: Q01DX009 (ip), vehicle: water): 107 % of control
- T/C (dose: 100.0 micrograms/kg/injection, schedule: Q01DX009 (ip), vehicle: saline): 152 % of control
- T/C (dose: 130.0 micrograms/kg/injection, schedule: Q01DX009 (ip), vehicle: water): 120 % of control
- T/C (dose: 150.0 micrograms/kg/injection, schedule: Q01DX009 (ip), vehicle: water): 111 % of control
- T/C (dose: 170.0 micrograms/kg/injection, schedule: Q01DX009 (ip), vehicle: saline): 226 % of control
- T/C (dose: 216.0 micrograms/kg/injection, schedule: Q01DX009 (ip), vehicle: saline): 173 % of control
- T/C (dose: 216.0 micrograms/kg/injection, schedule: Q01DX009 (ip), vehicle: water): 150 % of control and 165 % of control
- T/C (dose: 300.0 micrograms/kg/injection, schedule: Q01DX009 (ip), vehicle: water): 123 % of control
- T/C (dose: 360.0 micrograms/kg/injection, schedule: Q01DX009 (ip), vehicle: saline): 183 % of control
- T/C (dose: 360.0 micrograms/kg/injection, schedule: Q01DX009 (ip), vehicle: water): 155 % of control
- T/C (dose: 389.0 micrograms/kg/injection, schedule: Q04DX003 (ip), vehicle: saline): 187 % of control and 207 % of control
- T/C (dose: 600.0 micrograms/kg/injection, schedule: Q01DX009 (ip), vehicle: saline): 191 % of control
- T/C (dose: 600.0 micrograms/kg/injection, schedule: Q01DX009 (ip), vehicle: water): 155 % of control and 175 % of control
- T/C (dose: 648.0 micrograms/kg/injection, schedule: Q04DX003 (ip), vehicle: saline): 179 % of control and 258 % of control
- T/C (dose: 1080.0 micrograms/kg/injection, schedule: Q04DX003 (ip), vehicle: saline): 161 % of control and 214 % of control and 225 % of control
- T/C (dose: 1800.0 micrograms/kg/injection, schedule: Q04DX003 (ip), vehicle: saline): 195 % of control and 248 % of control and 303 % of control
- T/C (dose: 3000.0 micrograms/kg/injection, schedule: Q04DX003 (ip), vehicle: saline): 152 % of control and 243 % of control and 308 % of control
